Earlier results in patent publication US20220347144A1, “COMPOSITIONS AND METHODS FOR PREVENTING AND/OR REDUCING WEIGHT GAIN AND ASSOCIATED CONDITIONS” (University of Virginia Patent Foundation, priority 2019, published 2022).

What was measured:
rats [1] = settings: triglyceride form, Kojima et al., 2010; cited from earlier work
rats [2] = settings: in rapeseed oil, Hulan et al., 1977; cited from earlier work

Compound	obesity (rats [1])	heart lesions (rats [2])
CCCCCCCCCCCCCCCCCCCCCC(=O)O [behenic acid]	prevented obesity	
CCCCCCCC/C=C\CCCCCCCCCCCC(=O)O [erucic acid, (Z)-docos-13-enoic acid]		implicated in causing heart lesions
